According to patent publication US11840686B2, “Modulation of prekallikrein (PKK) expression” (Ionis Pharmaceuticals, Inc., priority 2013, dated 2023):
Strand notation (5' to 3'): a small letter for the sugar, then the base; units joined by * are phosphorothioate-linked, units joined directly phosphodiester-linked; [ ] holds rarer units or linkages, { } end groups; capitals alone tell only the bases. e = 2'-O-(2-methoxyethyl) (MOE); [5mC] = 5-methylcytosine; d = 2'-deoxy (DNA)

System: human PKK mRNA
Test: Antisense inhibition of human PKK mRNA in HepaRG cells, 3,000 nM (Example 1)
Assay type: cell-based
Conditions: relative to untreated control cells
Outline: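 HepaRG cells, 20,000 per well, were electroporated with 3,000 nM 5-10-5 MOE gapmer (phosphorothioate, 5-methylcytosine). After about 24 h, PKK mRNA was measured by qRT-PCR with primer probe set RTS3454 and normalised to RIBOGREEN total RNA. Values are percent inhibition versus untreated cells.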

[1] = Table 4, HepaRG cells, electroporation with 3,000 nM antisense oligonucleotide, approx. 24 hours, PKK mRNA by RT-PCR (RTS3454)
[2] = Table 3, HepaRG cells, electroporation with 3,000 nM antisense oligonucleotide, approx. 24 hours, PKK mRNA by RT-PCR (RTS3454)
[3] = Table 1, PKK mRNA, HepaRG cells, 3,000 nM, electroporation, ~24 h
[4] = Table 2, PKK mRNA, HepaRG cells, 3,000 nM, electroporation, ~24 h

For “531166 (antisense eA*eG*eA*e[5mC]*eA*dG*dT*dA*dA*dA*d[5mC]*dA*dA*dA*dA*eT*e[5mC]*eA*eG*eG) [compound 531166]”, the “% inhibition” value [1] was 12%.

For “531207 (e[5mC]*e[5mC]*eA*e[5mC]*eT*dT*dA*dT*dT*dT*dG*dA*dT*dG*dA*e[5mC]*e[5mC]*eA*e[5mC]*eA; antisense) [compound 531207]”, the “% inhibition” value [1] was 64%.

With “531092 (e[5mC]*e[5mC]*eT*eT*e[5mC]*dA*d[5mC]*dT*dG*dA*d[5mC]*dT*d[5mC]*dT*d[5mC]*eT*eT*eT*eT*e[5mC]; antisense) [compound 531092]” the “% inhibition” value [2] was 24%.

In the case of “530973 (antisense eG*eA*eG*eG*eA*dG*dT*dA*dG*dA*dG*dG*dA*dA*d[5mC]*eT*eT*eG*eG*eT) [compound 530973]”, the “% inhibition” value [3] is reported as 52%.

With “531129 (antisense eA*eG*e[5mC]*eA*eG*d[5mC]*dT*d[5mC]*dA*d[5mC]*dA*d[5mC]*d[5mC]*d[5mC]*dA*eA*eA*eA*eA*eG) [compound 531129]” the “% inhibition” value [2] was 0%.

In the case of “531205 (eA*e[5mC]*eA*eT*eT*dT*dT*dT*dT*dA*dA*dG*dT*dA*d[5mC]*eA*eG*eG*eA*eA; antisense) [compound 531205]”, the “% inhibition” value [1] is reported as 0%.

For “531097 (eA*e[5mC]*e[5mC]*eA*eA*dG*d[5mC]*dT*d[5mC]*dA*dG*d[5mC]*d[5mC]*dT*d[5mC]*e[5mC]*eA*eA*e[5mC]*eT; antisense) [compound 531097]”, the “% inhibition” value [2] was 41%.

“531201 (eT*eT*eT*e[5mC]*e[5mC]*dA*dA*dT*dA*d[5mC]*dT*dT*dT*dT*dA*e[5mC]*eA*eA*eA*eT; antisense) [compound 531201]” was tested, and the “% inhibition” value [1] was 52%.

With “531176 (antisense eT*eT*eA*eT*eG*dA*dA*dA*d[5mC]*d[5mC]*dT*d[5mC]*dT*dT*dG*eA*eT*eT*eT*eG) [compound 531176]” the “% inhibition” value [1] was 0%.

In the case of “530944 (antisense e[5mC]*eA*eG*eA*e[5mC]*dA*dT*d[5mC]*d[5mC]*dA*d[5mC]*dA*dG*dG*dA*eA*eA*e[5mC]*eT*eG) [compound 530944]”, the “% inhibition” value [3] is reported as 0%.

In the case of “530963 (antisense eT*eG*eG*eT*eG*d[5mC]*dA*d[5mC]*d[5mC]*dT*dT*dT*dT*dT*dT*eG*eG*e[5mC]*eA*eT) [compound 530963]”, the “% inhibition” value [3] is reported as 78%.

With “531171 (antisense eA*eG*eG*e[5mC]*e[5mC]*dT*dG*d[5mC]*d[5mC]*dA*d[5mC]*dA*dG*dG*d[5mC]*e[5mC]*eA*eG*eA*e[5mC]) [compound 531171]” the “% inhibition” value [1] was 40%.

“531127 (antisense e[5mC]*eA*eG*eA*eG*d[5mC]*d[5mC]*dT*dT*dG*dA*dT*d[5mC]*dA*dG*eA*eA*eT*eA*eA) [compound 531127]” was tested, and the “% inhibition” value [2] was 12%.

With “531219 (e[5mC]*eT*eT*e[5mC]*eT*d[5mC]*dT*dA*dT*d[5mC]*dT*d[5mC]*d[5mC]*d[5mC]*dA*eG*eT*eG*eT*eT; antisense) [compound 531219]” the “% inhibition” value [1] was 61%.

“531141 (antisense eT*eG*e[5mC]*eA*eA*dG*dG*d[5mC]*dA*dT*dG*dT*dG*dT*dG*e[5mC]*eA*e[5mC]*eA*eA) [compound 531141]” was tested, and the “% inhibition” value [2] was 47%.

With “531088 (eG*eG*eT*eT*eT*dT*dG*dT*dT*dT*dG*dT*dA*dA*dA*eA*eT*eT*eA*eG; antisense) [compound 531088]” the “% inhibition” value [2] was 27%.

“531086 (e[5mC]*e[5mC]*eT*eG*e[5mC]*d[5mC]*dT*d[5mC]*d[5mC]*dT*dG*dG*d[5mC]*dA*dG*e[5mC]*e[5mC]*eT*eT*e[5mC]; antisense) [compound 531086]” was tested, and the “% inhibition” value [2] was 48%.

For “531085 (eA*eG*eG*e[5mC]*eA*d[5mC]*dA*dG*dA*dG*d[5mC]*d[5mC]*dA*dG*d[5mC]*eA*e[5mC]*e[5mC]*e[5mC]*eA; antisense) [compound 531085]”, the “% inhibition” value [2] was 9%.

For “530945 (antisense eA*eT*e[5mC]*e[5mC]*e[5mC]*d[5mC]*dA*d[5mC]*d[5mC]*dT*d[5mC]*dT*dG*dA*dA*eG*eA*eA*eG*eG) [compound 530945]”, the “% inhibition” value [3] was 0%.

In the case of “530951 (antisense e[5mC]*eA*eA*eA*e[5mC]*dA*d[5mC]*d[5mC]*dT*dT*dG*dG*dG*dT*dG*eG*eA*eA*eT*eG) [compound 530951]”, the “% inhibition” value [3] is reported as 49%.

“531053 (antisense eA*eG*e[5mC]*eA*e[5mC]*dA*dG*dA*d[5mC]*d[5mC]*dA*dT*d[5mC]*d[5mC]*dG*eT*eT*eG*eG*eG) [compound 531053]” was tested, and the “% inhibition” value [4] was 49%.

“531221 (eA*eA*eG*eG*eG*dA*dT*dT*dT*dA*dA*dA*dA*dT*dT*eT*eT*eT*eA*eT; antisense) [compound 531221]” was tested, and the “% inhibition” value [1] was 0%.

With “531133 (antisense eT*eT*eT*eT*eG*dT*dT*dG*dT*dG*d[5mC]*dA*dG*dA*d[5mC]*eT*eG*eA*eA*eA) [compound 531133]” the “% inhibition” value [2] was 19%.

“531202 (eA*eT*eT*eA*eA*dT*dA*dA*dG*d[5mC]*dA*dT*d[5mC]*dT*d[5mC]*eT*e[5mC]*eT*eG*eA; antisense) [compound 531202]” was tested, and the “% inhibition” value [1] was 31%.

With “531056 (antisense eT*eT*eT*e[5mC]*e[5mC]*d[5mC]*d[5mC]*d[5mC]*dT*dT*d[5mC]*dT*dT*dT*dA*eT*eA*eG*e[5mC]*e[5mC]) [compound 531056]” the “% inhibition” value [4] was 45%.

In the case of “531116 (antisense eT*eT*eG*eT*eT*dA*dA*dG*dG*dT*dT*dG*dT*dA*dG*eA*eG*eA*eG*eA) [compound 531116]”, the “% inhibition” value [2] is reported as 23%.

In the case of “530978 (antisense e[5mC]*eT*eA*eT*eA*dT*d[5mC]*d[5mC]*dA*dG*dA*dT*dA*dT*dG*eG*eT*eG*eT*eT) [compound 530978]”, the “% inhibition” value [3] is reported as 0%.

“530975 (antisense eG*eT*eG*eT*eT*dT*dT*d[5mC]*dT*dT*dG*dA*dG*dG*dA*eG*eT*eA*eG*eA) [compound 530975]” was tested, and the “% inhibition” value [3] was 41%.

“531051 (antisense eA*eT*e[5mC]*e[5mC]*eG*dT*dT*dG*dG*dG*dT*dT*dA*dT*dT*eT*eT*eA*eT*eA) [compound 531051]” was tested, and the “% inhibition” value [4] was 51%.

“531039 (antisense eT*eA*e[5mC]*e[5mC]*e[5mC]*dA*dA*d[5mC]*dA*dG*dT*dT*dG*dG*dT*eA*eT*eA*eA*eA) [compound 531039]” was tested, and the “% inhibition” value [4] was 36%.

“531033 (antisense eA*eT*eT*eG*eG*dT*dT*dT*dT*dT*dG*dG*dA*dA*dT*eT*e[5mC]*eA*eG*eT) [compound 531033]” was tested, and the “% inhibition” value [4] was 53%.

In the case of “531155 (antisense e[5mC]*eT*eT*e[5mC]*eT*dT*dG*dT*d[5mC]*dT*d[5mC]*dA*dG*dA*dT*eT*eA*e[5mC]*e[5mC]*eA) [compound 531155]”, the “% inhibition” value [2] is reported as 79%.

“531206 (eG*eA*eA*eA*eT*dG*dT*d[5mC]*dT*dA*dG*d[5mC]*dA*dT*dT*eT*eT*e[5mC]*eT*eA; antisense) [compound 531206]” was tested, and the “% inhibition” value [1] was 28%.

For “531177 (antisense eT*eT*e[5mC]*eT*eT*dG*dT*dA*dA*dA*dT*dG*dT*d[5mC]*dT*eG*eA*eA*eT*eT) [compound 531177]”, the “% inhibition” value [1] was 61%.

In the case of “531212 (eA*e[5mC]*eA*eT*e[5mC]*dA*dG*dT*dA*dG*d[5mC]*dT*dT*d[5mC]*dA*eG*eA*eT*eG*eT; antisense) [compound 531212]”, the “% inhibition” value [1] is reported as 56%.

With “530998 (eA*eG*eT*eG*eA*dA*dA*dA*dA*d[5mC]*dT*dG*dA*d[5mC]*dA*eG*e[5mC]*eG*eA*eA; antisense) [compound 530998]” the “% inhibition” value [3] was 0%.

With “531102 (eT*eG*e[5mC]*e[5mC]*eT*d[5mC]*dT*dT*dT*dA*dA*dT*dA*dA*dA*eA*eA*e[5mC]*eT*e[5mC]; antisense) [compound 531102]” the “% inhibition” value [2] was 42%.

For “531111 (antisense e[5mC]*eT*eT*e[5mC]*eT*d[5mC]*d[5mC]*dT*dG*dG*d[5mC]*dT*d[5mC]*dA*dG*eA*eA*eG*e[5mC]*eT) [compound 531111]”, the “% inhibition” value [2] was 68%.

For “531015 (eT*eA*eT*eG*eA*dG*dT*dG*dA*d[5mC]*d[5mC]*d[5mC]*dT*d[5mC]*d[5mC]*eA*e[5mC]*eA*e[5mC]*eA; antisense) [compound 531015]”, the “% inhibition” value [4] was 52%.

For “531216 (eA*eA*eA*e[5mC]*eA*d[5mC]*dA*dG*dG*dA*dA*dT*dT*dT*dG*e[5mC]*eA*eG*eA*e[5mC]; antisense) [compound 531216]”, the “% inhibition” value [1] was 33%.

In the case of “531107 (antisense eT*e[5mC]*eA*eA*e[5mC]*dT*d[5mC]*dA*d[5mC]*dA*d[5mC]*d[5mC]*dT*dG*dA*e[5mC]*e[5mC]*eT*eA*eA) [compound 531107]”, the “% inhibition” value [2] is reported as 30%.

In the case of “531135 (antisense eA*eA*eT*eG*eT*dT*dG*dT*dG*dA*dA*dT*dA*d[5mC]*d[5mC]*eA*eT*e[5mC]*e[5mC]*e[5mC]) [compound 531135]”, the “% inhibition” value [2] is reported as 16%.

For “531000 (eA*eA*eG*eA*eA*dA*d[5mC]*dA*d[5mC]*dT*dT*dA*d[5mC]*dA*d[5mC]*eT*eT*e[5mC]*eT*e[5mC]; antisense) [compound 531000]”, the “% inhibition” value [3] was 1%.

For “531049 (antisense eT*eT*eA*eT*eT*dT*dT*dA*dT*dA*dA*dT*d[5mC]*dT*dT*eG*eA*eT*eA*eT) [compound 531049]”, the “% inhibition” value [4] was 2%.

“530983 (antisense eA*eT*eG*eG*e[5mC]*dA*dG*dG*dG*dT*dT*d[5mC]*dA*dG*dG*eT*eA*eA*eA*eG) [compound 530983]” was tested, and the “% inhibition” value [3] was 9%.

In the case of “531104 (eA*e[5mC]*eT*eT*eG*dA*d[5mC]*d[5mC]*dT*dT*dA*d[5mC]*dT*dG*dT*eT*eT*eT*eA*eG; antisense) [compound 531104]”, the “% inhibition” value [2] is reported as 20%.

For “531077 (eA*eT*eG*e[5mC]*e[5mC]*dA*d[5mC]*dT*d[5mC]*dT*d[5mC]*d[5mC]*dA*dT*dG*e[5mC]*eT*eT*eT*eG; antisense) [compound 531077]”, the “% inhibition” value [4] was 51%.

For “482586 (antisense eA*e[5mC]*e[5mC]*e[5mC]*eA*dA*d[5mC]*dA*dG*dT*dT*dG*dG*dT*dA*eT*eA*eA*eA*eT) [compound 482586]”, the “% inhibition” value [4] was 0%.
